Assay type in all cases: biochemical
One experiment deals with T1, human Yes1 enzyme (Homo sapiens, UniProt P07947).
T1 construct: made in house
The experiment in a line: Yes1 enzyme inhibitory activity (time-resolved fluorometry, biotinylated peptide phosphorylation). To be noted: biotinylated peptide phosphorylation, read-out: YES_IC50. The procedure, abridged: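 Inhibition was expressed against a compound-free control to give IC50, using TR-FRET read-out (Eu-cryptate anti-pTyr antibody, streptavidin-XL665).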

Another experiment deals with T2, human Src enzyme (Homo sapiens, UniProt P12931).
T2 construct: purchased Carna Biosciences, Inc. 08-173
T2 sequence (P12931 whole entry): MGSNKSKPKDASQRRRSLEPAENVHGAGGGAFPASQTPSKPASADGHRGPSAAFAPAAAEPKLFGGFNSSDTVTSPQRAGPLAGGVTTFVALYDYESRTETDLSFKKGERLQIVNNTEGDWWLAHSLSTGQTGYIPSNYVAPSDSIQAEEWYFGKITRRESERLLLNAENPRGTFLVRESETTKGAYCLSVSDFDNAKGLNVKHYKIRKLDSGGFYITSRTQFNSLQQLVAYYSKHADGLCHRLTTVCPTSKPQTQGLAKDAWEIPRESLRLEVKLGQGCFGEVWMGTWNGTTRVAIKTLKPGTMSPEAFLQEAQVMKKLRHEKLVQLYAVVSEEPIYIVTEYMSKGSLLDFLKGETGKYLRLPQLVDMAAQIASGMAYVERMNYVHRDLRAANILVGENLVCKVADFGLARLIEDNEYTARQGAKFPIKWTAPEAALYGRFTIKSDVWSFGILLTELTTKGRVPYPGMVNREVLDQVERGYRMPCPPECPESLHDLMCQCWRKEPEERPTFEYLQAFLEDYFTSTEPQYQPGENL
As to the kind of experiment: Src enzyme inhibitory activity (time-resolved fluorometry, biotinylated peptide phosphorylation). The following applies: biotinylated peptide phosphorylation, read-out: SRC_IC50. The procedure, abridged: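 Compounds were tested for blocking tyrosine phosphorylation of a biotinylated peptide substrate by recombinant human Src. Phosphorylated product was quantified by time-resolved fluorometry using europium cryptate and XL665 conjugates, and IC50 was calculated against the compound-free control.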

The target in another experiment is T3, human Lck enzyme (Homo sapiens, UniProt P06239).
T3 construct: purchased Carna Biosciences, Inc. 08-170
T3 sequence (P06239 whole entry): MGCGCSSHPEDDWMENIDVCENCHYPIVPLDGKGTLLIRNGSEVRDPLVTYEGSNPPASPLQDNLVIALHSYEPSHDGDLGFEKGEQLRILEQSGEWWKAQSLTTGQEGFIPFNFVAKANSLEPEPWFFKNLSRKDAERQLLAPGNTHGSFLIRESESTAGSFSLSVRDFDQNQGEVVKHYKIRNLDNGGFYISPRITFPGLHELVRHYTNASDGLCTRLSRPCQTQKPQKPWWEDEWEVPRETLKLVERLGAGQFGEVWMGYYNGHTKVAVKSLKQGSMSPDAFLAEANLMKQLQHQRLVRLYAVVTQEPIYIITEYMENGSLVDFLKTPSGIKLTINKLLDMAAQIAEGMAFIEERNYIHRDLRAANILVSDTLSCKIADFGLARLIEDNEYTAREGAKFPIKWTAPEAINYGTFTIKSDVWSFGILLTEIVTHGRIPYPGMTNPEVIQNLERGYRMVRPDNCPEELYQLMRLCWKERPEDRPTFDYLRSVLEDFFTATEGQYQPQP
As to the kind of experiment: Lck enzyme inhibitory activity (time-resolved fluorometry, biotinylated peptide phosphorylation). To be noted: biotinylated peptide phosphorylation, read-out: LCK_IC50. Summed up: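 Readout pairs a europium cryptate-labelled anti-phosphotyrosine antibody with XL665-streptavidin, measured by time-resolved fluorescence. IC50 derived from percent inhibition against untreated controls.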

Structures are written as SMILES.

T1 sequence (P07947 whole entry): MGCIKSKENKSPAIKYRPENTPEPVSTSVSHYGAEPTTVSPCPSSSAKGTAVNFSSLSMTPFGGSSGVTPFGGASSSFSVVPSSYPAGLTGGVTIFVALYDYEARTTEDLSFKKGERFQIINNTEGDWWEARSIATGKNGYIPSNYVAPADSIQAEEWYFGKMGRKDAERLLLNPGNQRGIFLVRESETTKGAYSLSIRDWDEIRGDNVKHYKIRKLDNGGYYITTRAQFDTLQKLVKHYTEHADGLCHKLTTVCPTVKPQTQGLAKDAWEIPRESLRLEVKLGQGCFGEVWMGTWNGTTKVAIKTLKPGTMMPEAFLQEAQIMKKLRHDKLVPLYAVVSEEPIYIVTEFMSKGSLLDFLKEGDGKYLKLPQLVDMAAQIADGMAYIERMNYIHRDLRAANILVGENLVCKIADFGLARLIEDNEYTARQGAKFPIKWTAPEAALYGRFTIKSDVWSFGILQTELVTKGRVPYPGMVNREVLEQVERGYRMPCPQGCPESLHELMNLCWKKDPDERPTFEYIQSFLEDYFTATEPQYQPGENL

As for `Cc1cc(Oc2ccccc2F)ncc1-n1ncc(C(=O)c2cc3cc(F)c(NS(=O)(=O)c4cncc(Cl)c4)cc3[nH]2)c1N` [Example 5-1-544, N-[2-[5-amino-1-[6-(2-fluorophenoxy)-4-methylpyridin-3-yl]pyrazole-4-carbonyl]-5-fluoro-1H-indol-6-yl]-5-chloropyridine-3-sulfonamide], the IC50 amounted to 8.4 nM on human Yes1 enzyme, 680 nM on human Src enzyme and 330 nM on human Lck enzyme.
Regarding `Cc1cc2cc(C(=O)c3cnn(-c4ccc(Oc5ccccc5F)cc4C)c3N)[nH]c2cc1NS(=O)(=O)c1cncc(F)c1` [Example 5-1-545, N-[2-[5-amino-1-[4-(2-fluorophenoxy)-2-methylphenyl]pyrazole-4-carbonyl]-5-methyl-1H-indol-6-yl]-5-fluoropyridine-3-sulfonamide], the IC50 at human Yes1 enzyme is 3.1 nM; at human Src enzyme, 150 nM; on human Lck enzyme it was 22 nM.
Consider `Cc1cc2cc(C(=O)c3cnn(-c4cnc(Oc5c(F)cccc5F)cc4C)c3N)[nH]c2cc1NS(=O)(=O)c1cncc(F)c1` [Example 5-1-546, N-[2-[5-amino-1-[6-(2,6-difluorophenoxy)-4-methylpyridin-3-yl]pyrazole-4-carbonyl]-5-methyl-1H-indol-6-yl]-5-fluoropyridine-3-sulfonamide], for which the IC50 was determined as 6.1 nM on human Yes1 enzyme, 680 nM on human Src enzyme and 78 nM on human Lck enzyme.
With `Cc1cc(Oc2ccccc2F)ccc1-n1ncc(C(=O)c2cc3cc(F)c(NS(=O)(=O)c4cncc(F)c4)cc3[nH]2)c1N` [Example 5-1-547, N-[2-[5-amino-1-[4-(2-fluorophenoxy)-2-methylphenyl]pyrazole-4-carbonyl]-5-fluoro-1H-indol-6-yl]-5-fluoropyridine-3-sulfonamide], the IC50 stood at 2.9 nM at human Yes1 enzyme, 350 nM at human Src enzyme and 30 nM at human Lck enzyme.
Turning to `Cc1cc(Oc2c(F)cccc2F)ncc1-n1ncc(C(=O)c2cc3cc(F)c(NS(=O)(=O)c4cncc(F)c4)cc3[nH]2)c1N` [Example 5-1-548, N-[2-[5-amino-1-[6-(2,6-difluorophenoxy)-4-methylpyridin-3-yl]pyrazole-4-carbonyl]-5-fluoro-1H-indol-6-yl]-5-fluoropyridine-3-sulfonamide], the IC50 turned out to be 7.6 nM on human Yes1 enzyme, 640 nM on human Src enzyme and 78 nM at human Lck enzyme.
Take `Cc1cc(Oc2ccccc2F)ncc1-n1ncc(C(=O)c2cc3cc(F)c(NS(=O)(=O)c4cncc(F)c4)cc3[nH]2)c1N` [Example 5-1-549, N-[2-[5-amino-1-[6-(2-fluorophenoxy)-4-methylpyridin-3-yl]pyrazole-4-carbonyl]-5-fluoro-1H-indol-6-yl]-5-fluoropyridine-3-sulfonamide]: the IC50 at human Yes1 enzyme turned out to be 7.7 nM; at human Src enzyme, 740 nM; at human Lck enzyme, 80 nM.
Take `Cc1cc2cc(C(=O)c3cnn(-c4ccc(Oc5ccccc5F)cc4C)c3N)[nH]c2cc1NS(=O)(=O)c1cccc(F)c1` [Example 5-1-550, N-[2-[5-amino-1-[4-(2-fluorophenoxy)-2-methylphenyl]pyrazole-4-carbonyl]-5-methyl-1H-indol-6-yl]-3-fluorobenzenesulfonamide]: the IC50 at human Yes1 enzyme is 5.1 nM; at human Src enzyme, 490 nM; at human Lck enzyme, 72 nM.
As to `Cc1cc2cc(C(=O)c3cnn(-c4cnc(Oc5c(F)cccc5F)cc4C)c3N)[nH]c2cc1NS(=O)(=O)c1cccc(F)c1` [Example 5-1-551, N-[2-[5-amino-1-[6-(2,6-difluorophenoxy)-4-methylpyridin-3-yl]pyrazole-4-carbonyl]-5-methyl-1H-indol-6-yl]-3-fluorobenzenesulfonamide], the results for the IC50 on human Yes1 enzyme, at human Src enzyme and at human Lck enzyme were 19 nM, 970 nM and 240 nM, respectively.
Taken in the same sequence, the figures for `Cc1cc(Oc2ccccc2F)ccc1-n1ncc(C(=O)c2cc3cc(F)c(NS(=O)(=O)c4cccc(F)c4)cc3[nH]2)c1N` [Example 5-1-552, N-[2-[5-amino-1-[4-(2-fluorophenoxy)-2-methylphenyl]pyrazole-4-carbonyl]-5-fluoro-1H-indol-6-yl]-3-fluorobenzenesulfonamide] were 5.4 nM, 830 nM and 130 nM.
With `Cc1cc(Oc2c(F)cccc2F)ncc1-n1ncc(C(=O)c2cc3cc(F)c(NS(=O)(=O)c4cccc(F)c4)cc3[nH]2)c1N` [Example 5-1-553, N-[2-[5-amino-1-[6-(2,6-difluorophenoxy)-4-methylpyridin-3-yl]pyrazole-4-carbonyl]-5-fluoro-1H-indol-6-yl]-3-fluorobenzenesulfonamide], the IC50 on human Yes1 enzyme was determined as 17 nM; at human Src enzyme, 1300 nM; on human Lck enzyme, 370 nM.
Regarding `Cc1cc(Oc2ccccc2F)ncc1-n1ncc(C(=O)c2cc3cc(F)c(NS(=O)(=O)c4cccc(F)c4)cc3[nH]2)c1N` [Example 5-1-554, N-[2-[5-amino-1-[6-(2-fluorophenoxy)-4-methylpyridin-3-yl]pyrazole-4-carbonyl]-5-fluoro-1H-indol-6-yl]-3-fluorobenzenesulfonamide], the figures for the IC50 on human Yes1 enzyme, on human Src enzyme and on human Lck enzyme were 13 nM, 1500 nM and 260 nM, respectively.
`Cc1cc2cc(C(=O)c3cnn(-c4cnc(Oc5c(F)cccc5F)cc4C)c3N)[nH]c2cc1NS(=O)(=O)c1cccc(C#N)c1` [Example 5-1-555, N-[2-[5-amino-1-[6-(2,6-difluorophenoxy)-4-methylpyridin-3-yl]pyrazole-4-carbonyl]-5-methyl-1H-indol-6-yl]-3-cyanobenzenesulfonamide]: the figures for the IC50 on human Yes1 enzyme, at human Src enzyme and at human Lck enzyme were 14 nM, 1200 nM and 150 nM, respectively.
Taken in the same sequence, the figures for `Cc1cc(Oc2ccccc2F)ncc1-n1ncc(C(=O)c2cc3cc(F)c(NS(=O)(=O)c4cccc(C#N)c4)cc3[nH]2)c1N` [Example 5-1-556, N-[2-[5-amino-1-[6-(2-fluorophenoxy)-4-methylpyridin-3-yl]pyrazole-4-carbonyl]-5-fluoro-1H-indol-6-yl]-3-cyanobenzenesulfonamide] were 8.8 nM, 1000 nM and 150 nM.
With `Cc1cc2cc(C(=O)c3cnn(-c4cnc(Oc5c(F)cccc5F)cc4C)c3N)[nH]c2cc1NS(=O)(=O)c1cccc(Cl)c1` [Example 5-1-557, N-[2-[5-amino-1-[6-(2,6-difluorophenoxy)-4-methylpyridin-3-yl]pyrazole-4-carbonyl]-5-methyl-1H-indol-6-yl]-3-chlorobenzenesulfonamide], the IC50 at human Yes1 enzyme came to 19 nM; on human Src enzyme, 1500 nM; at human Lck enzyme, 320 nM.
As to `Cc1cc(Oc2ccccc2F)ccc1-n1ncc(C(=O)c2cc3cc(F)c(NS(=O)(=O)c4cccc(Cl)c4)cc3[nH]2)c1N` [Example 5-1-558, N-[2-[5-amino-1-[4-(2-fluorophenoxy)-2-methylphenyl]pyrazole-4-carbonyl]-5-fluoro-1H-indol-6-yl]-3-chlorobenzenesulfonamide], the figures for the IC50 at human Yes1 enzyme, on human Src enzyme and at human Lck enzyme were 4.9 nM, 1500 nM and 230 nM, respectively.
Consider `Cc1cc(Oc2c(F)cccc2F)ncc1-n1ncc(C(=O)c2cc3cc(F)c(NS(=O)(=O)c4cccc(Cl)c4)cc3[nH]2)c1N` [Example 5-1-559, N-[2-[5-amino-1-[6-(2,6-difluorophenoxy)-4-methylpyridin-3-yl]pyrazole-4-carbonyl]-5-fluoro-1H-indol-6-yl]-3-chlorobenzenesulfonamide], for which the IC50 on human Yes1 enzyme was determined as 17 nM; at human Src enzyme it was 2400 nM; at human Lck enzyme it was 810 nM.
On the same counts, the results for `Cc1cc(Oc2ccccc2F)ncc1-n1ncc(C(=O)c2cc3cc(F)c(NS(=O)(=O)c4cccc(Cl)c4)cc3[nH]2)c1N` [Example 5-1-560, N-[2-[5-amino-1-[6-(2-fluorophenoxy)-4-methylpyridin-3-yl]pyrazole-4-carbonyl]-5-fluoro-1H-indol-6-yl]-3-chlorobenzenesulfonamide] are 16 nM, 2400 nM and 690 nM.
Taken in the same sequence, the figures for `Cc1cc2cc(C(=O)c3cnn(-c4cnc(Oc5c(F)cccc5F)cc4C)c3N)[nH]c2cc1NS(=O)(=O)c1cc(F)cc(F)c1` [Example 5-1-561, N-[2-[5-amino-1-[6-(2,6-difluorophenoxy)-4-methylpyridin-3-yl]pyrazole-4-carbonyl]-5-methyl-1H-indol-6-yl]-3,5-difiuorobenzenesulfonamide] were 17 nM, 940 nM and 270 nM.
On the same counts, the results for `Cc1cc(Oc2ccccc2F)ccc1-n1ncc(C(=O)c2cc3cc(F)c(NS(=O)(=O)c4cc(F)cc(F)c4)cc3[nH]2)c1N` [Example 5-1-562, N-[2-[5-amino-1-[4-(2-fluorophenoxy)-2-methylphenyl]pyrazole-4-carbonyl]-5-fluoro-1H-indol-6-yl]-3,5-difluorobenzenesulfonamide] are 5.3 nM, 830 nM and 180 nM.
Take `Cc1cc(Oc2c(F)cccc2F)ncc1-n1ncc(C(=O)c2cc3cc(F)c(NS(=O)(=O)c4cc(F)cc(F)c4)cc3[nH]2)c1N` [Example 5-1-563, N-[2-[5-amino-1-[6-(2,6-difluorophenoxy)-4-methylpyridin-3-yl]pyrazole-4-carbonyl]-5-fluoro-1H-indol-6-yl]-3,5-difluorobenzenesulfonamide]: the IC50 at human Yes1 enzyme worked out at 17 nM; on human Src enzyme, 1200 nM; at human Lck enzyme, 590 nM.
